Measurements taken from patent US11819533B2, “Compositions and methods for the treatment of fungal infections” (Cidara Therapeutics, Inc., priority 2017, dated 2023).
Starred links: 1 amine or outer side, 2 acyl side, 3 side chain; linkers in the order of their positions; H or OH if unused. Positions of bridges follow the written chain, without caps; N, C: chain ends. Non-standard residues stand in square brackets, D forms with d. Residues, ends and D or L forms follow the SMILES beside them. *: point of attachment. Orn(4R-OH,5R-OCH2CH2NMe3+) = C[N+](C)(C)CCO[C@@H](N[*:3])[C@H](O)C[C@H](N[*:1])C(=O)[*:2]; pTerphenylCO(4''-OnC5H11) = CCCCCOc1ccc(-c2ccc(-c3ccc(C(=O)*)cc3)cc2)cc1; Orn(4R-OH,5R-OH) = O=C([C@H](C[C@@H](O)[C@@H](O)N[*:3])N[*:1])[*:2]; hTyr(3S-OH,4S-OH) = N[C@H](C(=O)O)[C@H](O)[C@@H](O)c1ccc(O)cc1; Pro(3S-OH,4S-Me) = C[C@H]1CN[C@H](C(=O)O)[C@H]1O; Hyp = O=C(O)[C@@H]1C[C@@H](O)CN1

Assays:
[1] = system: C. albicans SC-5314 biofilms; assay: Activity against mature phase biofilms (treatment), XTT and CSLM; type: cell-based, Candida albicans; settings: for CSLM biofilm architecture, mature phase / Metabolic activity (XTT) of mature phase biofilms compared to untreated: 24 h exposure of mature biofilms, CD101 0.25 and 1 μg/ml, fluconazole 1 and 4 μg/ml; for Thickness of biofilms, mature phase: CSLM, untreated control 43 μm
Procedure: (§1) C. albicans SC-5314 was used for the current study.
(§2) In this study, biofilms were grown in vitro using a biofilm model (Chandra et al., Nature Protocols 3:1909, 2008) and the effect of CD101 on adhesion phase biofilms (representing prevention of biofilms) or mature phase biofilms (representing treatment of biofilms) was determined.
(§3) Biofilms were formed on silicone elastomer (SE) discs using a catheter-associated-biofilm model (Chandra et al., Nature Protocols 3:1909, 2008; Chandra et al., J. Bacteriol. 183: 5385, 2001; Chandra et al., J. Dental Research 80: 903, 2001). For evaluation of activity against adhesion phase biofilms (prevention), Candida cells were adhered to catheter discs for 90 min. […] For evaluation of activity against mature phase biofilms (treatment), Candida cells were adhered to catheter discs for 90 min, then transferred to fresh media and incubated for a further 24 h to allow formation of biofilms. […] Discs incubated with fluconazole or media alone were used as controls in all experiments.
(§4) At the end of drug exposure in both adhesion and mature phase biofilms, biofilms were quantified by measuring their metabolic activity using XTT assay (Chandra et al., Nature Protocols 3:1909, 2008; Chandra et al., J. Bacteriol. 183: 5385, 2001; Chandra et al., J. Dental Research 80: 903, 2001). Following incubation with drugs, discs were transferred to fresh plates containing phosphate buffered saline with XTT and menadione, incubated for 3 h at 37° C. and optical density was read at 492 nm. Separate batches of biofilms were stained with fluorescent dyes (FUN1™, CONA) and observed under Confocal Scanning Laser Microscope (CSLM) to evaluate biofilm architecture and thickness (Chandra et al., Nature Protocols 3:1909, 2008; Chandra et al., J. Bacteriol. 183: 5385, 2001).

[2] = system: C. albicans SC-5314 biofilms; assay: Activity against adhesion phase biofilms (prevention), XTT and CSLM; type: cell-based, Candida albicans; settings: for CSLM biofilm architecture, adhesion phase / Metabolic activity (XTT) of adhesion phase biofilms compared to untreated: 24 h exposure, CD101 0.25 and 1 μg/ml, fluconazole 1 and 4 μg/ml; for Thickness of biofilms, adhesion phase: CSLM, untreated control 36 μm
Procedure: as §1, §2, §3, §4

[3] = PBS buffer drop test (Example 3); type: physicochemical; settings: 0.50% Tween 80, 0.76% mannitol, 0.125% sodium lactate in 3.5% dextrose solution, pH ~5.5; 2 mg/mL, 0.47 mg/mL in PBS
Procedure: These solutions were tested for solubility in the PBS drop test, which involved adding the solution dropwise into PBS solution (1:4.3 dilution) and visually observing the resulting solution for any precipitation. PBS buffer serves as a surrogate for plasma, and the PBS drop test is used to evaluate the potential for insolubility as the drug enters the bloodstream at the injection site.

[4] = system: Candida auris; assay: Candida auris infection in a murine model of disseminated candidiasis; type: in vivo; settings: immunosuppressed CD-1 mice; for Percent survival at the end of the study: day 14, CD101 20 mg/kg IP, fluconazole 20 mg/kg PO, amphotericin B 0.3 mg/kg IP, doses on day 1 and day 4
Procedure: Female 6-8 week old CD-1 mice were immunosuppressed with cyclophosphamide (200 mg/kg) 3 days prior to infection and 150 mg/kg 1 day post-infection. On the day of infection, mice were inoculated with 3×10^7 C. auris blastospores via the lateral tail vein. Mice were randomized into 5 groups (n=5 for colony forming units (CFU) and n=10 for survival): CD101 20 mg/kg administered by intraperitoneal (IP) injection, fluconazole 20 mg/kg administered per os (PO), amphotericin B 0.3 mg/kg IP, and a vehicle control. Treatments were administered 2 hours post-infection (day 1) and again on day 4 of the study for a total of 2 doses. Mice were monitored daily and a survival curve was generated. CFU groups were sacrificed on day 8 of the study. One kidney was removed from each mouse, homogenized, plated on potato dextrose agar (PDA), and incubated at 35° C. for 2 days to determine CFU. The remaining survival mice were monitored until the end of the study (day 14).

[5] = PBS drop test of CD101 IV formulations (Example 4); type: physicochemical; settings: 6 mg/mL in 1.25% Tween 80, 5% mannitol, 0.3% glacial acetic acid, pH ~4.5; 0.25 mL into 1 mL PBS
Procedure: Solubility of CD101-containing formulations with different percentages of Tween 80 (also referred to as polysorbate 80) was evaluated in a “PBS drop test.” This involved preparing a known concentration of CD101 in a formulation and injecting the formulation into PBS to visually examine for precipitation. This test was used to assess if a CD101-containing formulation would remain soluble in blood during IV infusions.
(1) 1.25% Tween 80, 5% mannitol, 0.3% glacial acetic acid, pH ˜4.5
(2) 0.50% Tween 80, 0.76% mannitol, 0.125% sodium lactate in 3.5% dextrose solution, pH ˜5.5
Different concentrations of CD101 acetate were prepared in vehicles (1) and (2) and tested for solubility in the PBS drop test.
Add dropwise the formulated solution into PBS solution (1:4 dilution). Visually observe the resulting solution upon addition for any precipitation.

[6] = system: C. albicans SC-5314 biofilms; assay: Time lapse microscopy of biofilm formation; type: cell-based, Candida albicans; settings: followed up to 16 h
Source text: The effective CD101 concentration obtained from the above experiments was used to monitor its effect on biofilm formation in real time using TLM, which involves capturing real-time images of a single frame at specific time intervals, allowing temporal monitoring of the interactions occurring between the drug and Candida biofilms. Captured images were combined in a time sequence, resulting in an animation depicting the sequence of events that occurred with the passage of time. Briefly, the discs with C. albicans (adhered for 90 min as above) were placed in a 35-mm-diameter glass-bottom Petri dish (MatTek Corp., Ashland, MA). […] Phase contrast images for this interaction were captured immediately from 0 h and followed up to 16-17 h on a Leica DMI 6000 B inverted microscope connected to a Retiga EXi Aqua camera (Q-imaging Vancouver British Columbia). To determine the structural changes in the maturing biofilm, both acquisition and analysis of a series of horizontal (xy) optical sections of the biofilm was done using Metamorph Imaging software (Molecular Devices, Downington, PA). Disc incubated with media alone was used as control.

[7] = system: Sprague Dawley rats; assay: 14-day repeat-dose intravenous infusion toxicity study; type: in vivo
Procedure: The primary purpose of this study was to evaluate the toxicity of CD101 when administered intravenously as a 20-minute infusion into the lateral tail vein of Sprague Dawley rats for fourteen consecutive days. A positive control group (Eraxis®) with a similar structure and pharmacodynamic activity was included in the study design.
The test article, CD101 acetate, was a white to off-white powder. The test article was prepared into dosing formulations for intravenous dose administration. One hundred experimentally naïve Sprague Dawley rats (50 males and 50 females), a minimum of 8 weeks old and weighing 255-318 grams (males) and 192-215 (females) at the outset of the study were assigned to treatment groups as shown in Table 7 below:
All animals were dosed on Days 1 through 3 inclusive. As a result of tail vein irritation observed among all study groups, dose administration was suspended on Day 4 to allow the tails to recover. Dosing resumed on Day 5 and continued for a maximum of ten additional days (Days 5 through 14 inclusive). Animals that could no longer be dosed during this time remained on study.
Male and female Sprague Dawley rats were to receive CD101 acetate at doses of 0, 2, 6 and 20 mg/kg/day (Groups 1, 3, 4 and 5, respectively) or Eraxis® (the positive control article, Group 2) at a dose of 40 mg/kg/day, intravenously as a 20 minute infusion into the left or right lateral tail vein for fourteen consecutive days. During the first three treatment days, all animals were dosed with the first vehicle used on this study (1.75% Tween 80/5% Dextrose: Groups 1 and 3-5; 5% Dextrose: Group 2). As a result of the localized tail swelling observed during the first three days of treatment, study Day 4 served as a drug-free day to alleviate tail vein irritation. Dose administration resumed on Day 5 using a new vehicle (5% Mannitol/2.5% Tween 80/0.3% acetic acid: Groups 1 and 3-5; 5% Mannitol/0.3% acetic acid: Group 2) for the remainder of the treatment period (Days 5-14). Those animals that could no longer be dosed because of severe vein irritation were retained on study, untreated, until the end of the study (Day 15).

| SMILES | CSLM biofilm architecture, mature phase [1] | Metabolic activity (XTT) of mature phase biofilms compared to untreated [1] | Thickness of biofilms, mature phase [1] | CSLM biofilm architecture, adhesion phase [2] | Metabolic activity (XTT) of adhesion phase biofilms compared to untreated [2] | Thickness of biofilms, adhesion phase [2] | Appearance upon PBS drop test [3] | Average reduction in kidney CFU compared to fluconazole, amphotericin B and vehicle treated groups ([4]; 20 mg/kg IP on day 1 and day 4, kidney on day 8) [log] | Percent survival at the end of the study [4] [%] | Time the formulated solution remained soluble in PBS [5] | Temporal effect on 3 h formed biofilms (time lapse) ([6]; 0.25 μg/ml added after 3 h biofilm formation) | Temporal effect on formation of biofilms (time lapse) ([6]; 0.25 μg/ml added to cells adhered for 90 min) | Incidence of tail vein irritation ([7]; Days 1-3, first vehicle (1.75% Tween 80 and 5% Dextrose for CD101 acetate; 5% Dextrose for Eraxis), Eraxis 40 mg/kg/day, CD101 acetate 6 and 20 mg/kg/day, males and females) | Vein irritation compared to Groups 1, 3 and 4 ([7]; Days 5-14, second vehicle (5% Mannitol, 2.5% Tween 80, 0.3% Acetic Acid for CD101 acetate; 5% Mannitol and 0.3% Acetic Acid for Eraxis), Eraxis 40 mg/kg/day, CD101 acetate 20 mg/kg/day) | Animals dosed for less than the intended ten-day duration (Days 5-14) as a result of tail swelling/lesions ([7]; males, 40 mg/kg/day (Group 2), 20-minute IV infusion, second vehicle 5% Mannitol/0.3% acetic acid) [%] |
| --- | --- | --- | --- | --- | --- | --- | --- | --- | --- | --- | --- | --- | --- | --- | --- |
| CCCCCOc1ccc(-c2ccc(-c3ccc(C(=O)N[C@H]4C[C@@H](O)[C@@H](OCC[N+](C)(C)C)NC(=O)[C@@H]5[C@@H](O)[C@@H](C)CN5C(=O)[C@H]([C@@H](C)O)NC(=O)[C@H]([C@H](O)[C@@H](O)c5ccc(O)cc5)NC(=O)[C@@H]5C[C@@H](O)CN5C(=O)[C@H]([C@@H](C)O)NC4=O)cc3)cc2)cc1 [CD101] ({pTerphenylCO(4''-OnC5H11)}-[Orn(4R-OH,5R-OCH2CH2NMe3+)]T[Hyp][hTyr(3S-OH,4S-OH)]T[Pro(3S-OH,4S-Me)]; lactam 1-C) | eradicated and showed bulged, deformed/broken cells | significantly less metabolic activity | 24 μm | only remnants of adhered cells, and no biofilm maturation | formed significantly less biofilms | 4 μm | Clear | 3 | 80 | at least 1 hour | remained stunted and failed to grow into mature biofilms | only adhered cells with stunted growth, which failed to grow into mature biofilms |  |  |  |
| C[C@@H]1[C@H](O)[C@@H](C)/C=C/C=C/C=C/C=C/C=C/C=C/C=C/[C@H](O[C@@H]2O[C@H](C)[C@@H](O)[C@H](N)[C@@H]2O)C[C@@H]2O[C@](O)(C[C@@H](O)C[C@@H](O)[C@H](O)CC[C@@H](O)C[C@@H](O)CC(=O)O[C@H]1C)C[C@H](O)[C@H]2C(=O)O [amphotericin B, reference compound] |  |  |  |  |  |  |  |  | 30 |  |  |  |  |  |  |
| CCCCCOc1ccc(-c2ccc(-c3ccc(C(=O)N[C@H]4C[C@@H](O)[C@@H](O)NC(=O)[C@@H]5[C@@H](O)[C@@H](C)CN5C(=O)[C@H]([C@@H](C)O)NC(=O)[C@H]([C@H](O)[C@@H](O)c5ccc(O)cc5)NC(=O)[C@@H]5C[C@@H](O)CN5C(=O)[C@H]([C@@H](C)O)NC4=O)cc3)cc2)cc1 [Eraxis®, Anidulafungin, reference compound] ({pTerphenylCO(4''-OnC5H11)}-[Orn(4R-OH,5R-OH)]T[Hyp][hTyr(3S-OH,4S-OH)]T[Pro(3S-OH,4S-Me)]; lactam 1-C) |  |  |  |  |  |  |  |  |  |  |  |  | highest | only marginally higher | 30 |
| OC(Cn1cncn1)(Cn1cncn1)c1ccc(F)cc1F [fluconazole, reference compound] | did not affect Candida biofilms | neither concentrations of fluconazole (1 and 4 μg/ml) affected these biofilms | no effect | did not inhibit biofilm formation | did not inhibit biofilm formation | no effect on biofilm thickness |  |  | 0 |  |  |  |  |  |  |
